The results in this text go back to the METLIN SMRT retention time set (Domingo-Almenara et al. 2019).

This data set is described as follows: gradient 5% acetonitrile 3 min, to 50% in 2 min, to 85% in 15 min, held 3 min, 100 µL/min. The settings on record: column: Zorbax Extend-C18 2.1 x 50 mm; eluents: water / acetonitrile, 0.1% formic acid. Summed up:
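The system's dead and dwell volumes were 40 μL and 900 μL, with a Zorbax Extend-C18 column (2.1 × 50 mm, 1.8 μm) run at 100 μL/min in water and acetonitrile containing 0.1% formic acid each. Pure standards were analyzed in mixtures of ~100 molecules by HPLC–quadrupole time-of-flight mass spectrometry in positive and negative ionization mode. Retention time was assigned from computationally picked, manually inspected adduct peaks.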
The compound `CC(C)(C)c1csc(-c2csc(S(=O)(=O)NC3CCCCCC3)c2)n1` registered an RP-LC retention time of 1010 s. To `CCCCC(=O)N1CC(c2nc(-c3cccnc3)no2)C2(CCOCC2)C1` (centres undefined) belongs 651 s; to `CCCN1C(=O)COc2ccc(-c3noc(-c4ccn(CC)n4)n3)cc21`, 956 s. For `Cc1nc(-c2cn(C)c3ncccc23)sc1C(=O)NC1CCCCCC1`, the RP-LC retention time amounted to 995 s. To `COc1ccc(CNC(=O)C2CCCN2S(=O)(=O)c2cc3c(cc2Cl)NC(=O)CO3)cc1` (centres undefined) belongs 745 s.

In turn, `Cc1c(-c2ccnc(N3CCN(C)CC3)n2)cnc2nc(-c3ccncc3)nn12` displayed an RP-LC retention time of 552 s.

`CC(C)NC(=O)C1CCc2sc(C(=O)N3CCOCC3)cc2C1` (centres undefined) had an RP-LC retention time of 596 s. To `Cc1cccc(NS(=O)(=O)c2cc(-c3[nH]ncc3C(=O)N(C)C)oc2C)c1` belongs 678 s; to `Cc1sc(-c2cc(C(F)(F)F)on2)cc1S(=O)(=O)Nc1cccc(Cl)c1`, 1180 s.

Compound `COC(=O)CC(=O)Nc1ccc(-c2nc(-c3ccccc3)co2)cc1` gave an RP-LC retention time of 906 s. To `CCCN1C(=O)COc2ccc(-c3noc(Cc4cccc(OC)c4)n3)cc21` belongs 1080 s; to `CCOC(=O)CCNC(=O)N1CCN(Cc2nnnn2-c2ccc(F)c(F)c2)CC1`, 688 s. To `COc1ccc2c(CCNC(=O)c3ccc(C(C)(C)C)cc3)c[nH]c2c1` belongs 982 s; to `CC(=O)NCCc1csc(C2CCCN(C(=O)C3(c4ccccc4)CC3)C2)n1` (centres undefined), 705 s. The compound `O=C(Nc1ccc2c(c1)OCCO2)c1cccc(N2CCNC(c3ccccc3)C2)n1` (centres undefined) displayed an RP-LC retention time of 668 s.

For the compound `CCc1ccc(S(=O)(=O)N2CCC(c3noc(-c4ccccc4C)n3)CC2)cc1`, the RP-LC retention time stood at 1150 s. In turn, `O=C(N[C@@H]1CN(Cc2ccccn2)C[C@H]1CO)C1(c2ccccc2)CC1` returned an RP-LC retention time of 608 s. In turn, `CCOc1ccc(-c2ccc(=O)n(CCNC(=O)c3ccc(N(C)C)cc3)n2)cc1` displayed an RP-LC retention time of 732 s. To `COc1nn(C)cc1C(=O)NCC(=O)NC1CCSC1=O` (centres undefined) belongs 559 s.

Compound `COC(=O)C1CCN(S(=O)(=O)c2ccc(Cl)c(-c3nnc(-c4ccc(OC)cc4)o3)c2)CC1` showed an RP-LC retention time of 1050 s.

Consider `COc1cccc(-c2noc(Cn3ccnc3C)n2)c1`, for which the RP-LC retention time is 624 s. To `COCCCNC(=O)Cn1cnc2onc(-c3ccc(Cl)cc3)c2c1=O` belongs 792 s; to `COC(=O)c1c(NCCCc2ccccc2)c2cc(F)ccc2[nH]c1=O`, 848 s; to `Cc1cccc(N2C=C(C(=O)N3CCOCC3)S(=O)(=O)c3ccc(Cl)cc32)c1`, 868 s.

Compound `CCc1nn2c(CNC(=O)c3ccc(Cl)cc3)c(-c3ccccc3)nc2s1` registered an RP-LC retention time of 974 s. In the case of `COc1ccc(-c2nc3cnccn3c2Nc2cc(OC)ccc2OC)cc1`, the RP-LC retention time is 831 s. As for `CCOc1ccc2ncc(C(=O)c3ccc(C)cc3)c(N3CCN(CC)CC3)c2c1`, the figure is 622 s; as for `CCCN1CCN(C(=O)CN2C(=O)C3CCCCN3c3ccc(S(=O)(=O)N(C)C)cc32)CC1` (centres undefined), 628 s; as for `COc1cccc(CNC(=O)Nc2c(-c3ccc(F)cc3)nc3ccccn23)c1`, 652 s. As for `O=C(Cc1cccn1-c1ccc(Cl)cc1)NC1CCCC1`, the figure is 945 s; as for `CCSc1ccc(Cc2nnc(NC(=O)c3cccs3)o2)cc1`, 807 s. To `O=C(Cn1ccn2nc(-c3ccccc3)c(CO)c2c1=O)Nc1ccccc1` belongs 781 s; to `COCc1cnc2c(c1SCc1cccc(Cl)c1)c(=O)n(C)c(=O)n2C`, 1060 s; to `Cc1nc(C)c(C(=O)N2CCC(n3c(C)cnc3C3CCC3)CC2)s1`, 580 s. As to `COc1ccc(NC(=O)NC2CCN(c3ccc(C)c(C)c3)C2=O)cc1F` (centres undefined), the RP-LC retention time amounted to 800 s. As for `CC(C)n1cnc2c(NCCc3ccc(O)cc3)nc(-c3csc4ccccc34)nc21`, the figure is 1160 s; as for `O=C(N[C@H]1C[C@@H]2C[C@H]1N(C(=O)c1ccc(F)c(Cl)c1)C2)c1ccccc1`, 850 s.

`O=C(Nc1c(-c2ccccc2)nc2ccccn12)c1ccc(Cl)cc1Cl`: the RP-LC retention time was 677 s. As for `CC(=O)Nc1ccc(S(=O)(=O)N=S(C)C)cc1`, the figure is 608 s.

Regarding `Cn1nccc1C(=O)N1CCC(c2nc(-c3ccc(F)cc3)no2)CC1`, the RP-LC retention time is 811 s. To `CSc1nnc(-c2nn(C)c3c2CN(C(=O)Cc2ccc(C)cc2)CC3)n1C` belongs 736 s; to `COc1ccc(-n2c(=O)c(C(=O)Nc3ccc4c(c3)OCO4)c(O)c3cccnc32)cc1`, 1200 s. As for `CC(C)NC(=O)c1ccc(OCC2CCCN(C(=O)Cc3ccccc3F)C2)cc1` (centres undefined), the figure is 875 s; as for `O=c1c(S(=O)(=O)N2CCCC2)cccn1Cc1ccccc1Cl`, 860 s. `O=C(NC1CC1)C1CCN(c2nc3ccsc3c(=O)n2Cc2ccc(F)cc2)CC1` came in with an RP-LC retention time of 768 s.

In the case of `CCc1ccc(C2=C(C)C(N3CCCN(C(=O)C4CCCCC4)CC3)=NS2(=O)=O)cc1`, the RP-LC retention time was determined as 976 s.

Take `O=C(Nc1ccccc1)N1CCc2nc(-c3ccc(Cl)cc3)ncc2C1`: the RP-LC retention time is 997 s. To `CC1(C(=O)NC2CCCCCCC2)CN(S(C)(=O)=O)CC(=O)N1Cc1ccc(F)cc1` (centres undefined) belongs 740 s; to `O=C(Nc1ccccn1)C1CCCN(c2ncnc3c2nc2n3CCCCC2)C1` (centres undefined), 675 s; to `COC(=O)c1cc(OCC(=O)Nc2cccc(OC)c2)c2ccccc2n1`, 779 s.

Compound `CC1CS(=O)(=O)N(c2ccc(C(=O)N3CCN(c4ccccn4)CC3)cc2)C1=O` (centres undefined) returned an RP-LC retention time of 554 s. To `COc1ccccc1NC(=O)N1CCN(c2cc(C)nc(N3CCCC3)n2)CC1` belongs 673 s; to `COc1ccc(C2(C(=O)N3CCC4(CC3)c3nccn3-c3ccccc3CN4C)CC2)cc1`, 630 s; to `CCN1c2ccc(C)cc2C(=O)NC12CCN(C(=O)c1cccc(OC)c1)CC2`, 805 s. As for `CCCCNC(=O)C1CCN(S(C)(=O)=O)c2cc(Cl)ccc2O1` (centres undefined), the figure is 887 s.

Compound `CCSc1ccccc1C(=O)Nc1cc(C(C)(C)C)nn1CCO` yielded an RP-LC retention time of 781 s.

`CCN1CCCn2cc(S(=O)(=O)Nc3ccc(F)c(C)c3)cc2C1=O` had an RP-LC retention time of 755 s. `CCNC(=O)N1CCCC(c2cccc(C(=O)NCC3CCCCC3)c2)C1` (centres undefined): the RP-LC retention time was 891 s.

`Cc1ccc(CNC(=O)Cn2c(=O)c3nnc(C)n3c3ncccc32)cc1` came in with an RP-LC retention time of 692 s.

Compound `CCOc1ccc(NC(=O)N2CCc3cn(C)c4cccc(c34)C2)cc1` displayed an RP-LC retention time of 913 s. As for `CCOc1ccc(S(=O)(=O)N2CCC(C(=O)NCc3ccccn3)CC2)cc1C`, the figure is 680 s; as for `Cc1ccc(N2CCN(S(=O)(=O)c3ccc(-c4nnc(C5CCC5)o4)o3)CC2)cc1`, 1120 s; as for `CC(C)(C)NC(=O)N1CCC(CNC(=O)CSCc2ccccc2)CC1`, 735 s. To `O=C(NCCOc1ccc(F)cc1)C1CN(C(=O)c2cccs2)C1` belongs 691 s. As for `O=C(Cn1c(=O)c2cccn2c2ccc(F)cc21)N1CCN(c2ccccn2)CC1`, the figure is 605 s; as for `O=C(O)c1cccnc1N1CCCCC1`, 575 s; as for `Cc1ccc(-c2nc3ncccn3c2NC(=O)c2cccc(C(F)(F)F)c2)cc1`, 838 s.

`Cc1nc(Nc2ccccc2)sc1C(=O)NC1CCCC1` registered an RP-LC retention time of 869 s.

Turning to `COc1cc2c(cc1OC)CN(C(=O)C1CCCN1S(=O)(=O)c1ccc(F)cc1)CC2` (centres undefined), the RP-LC retention time worked out at 775 s. As for `CN(C)c1nc2ncn3c(=O)n(CC(=O)Nc4cc(F)cc(F)c4)nc3c2s1`, the figure is 741 s; as for `Cc1cc(C)cc(S(=O)(=O)N2CCC(n3cnc4c(C)cccc4c3=O)CC2)c1`, 1070 s. To `CCc1ccc(CNC(=O)c2nnc(-c3ccc(S(=O)(=O)N(C)C)cc3)o2)cc1` belongs 959 s; to `Cc1ccccc1-n1ccn(Cc2nc(-c3ccccc3)no2)c(=O)c1=O`, 809 s.

On to `OC(CN1CCNCC1)Cn1c2ccc(Br)cc2c2cc(Br)ccc21` (centres undefined), for which the RP-LC retention time was found to be 732 s.

Regarding `Fc1ccc(C2Cn3nnc(-c4nc(-c5ccc(Cl)cc5)no4)c3CO2)cc1` (centres undefined), the RP-LC retention time is 1230 s.

With `CC(C)N1CCN(C(=O)C2CC(=O)N(c3ccc4c(c3)CCN4C(=O)C3CC3)C2)CC1` (centres undefined), the RP-LC retention time was 579 s.

In the case of `Cc1ccc(C(C)NC(=O)Cn2cc(-c3noc(-c4ccc(F)cc4)n3)nc2C)cc1` (centres undefined), the RP-LC retention time was 907 s.

Take `CN(C)[C@@H]1CN(C(=O)c2ccc(Cn3cncn3)o2)CC[C@@H]1CO`: the RP-LC retention time was found to be 518 s. In the case of `CCOc1ccc(-c2noc(Cc3nnc(-c4ccc(C)c(F)c4)o3)n2)cc1`, the RP-LC retention time was determined as 1140 s.
